Reference: US20230085307A1, “PYRIDAZINONE COMPOUND AND HERBICIDE” (NISSAN CHEMICAL CORPORATION, priority 2019, published 2023)

Legend:
southern crabgrass [1] = assay: Test Example 5: herbicidal effect by foliage application, plastic box (Table 20, symbol F); type: in vivo, southern crabgrass (Digitaria ciliaris); conditions: foliage application, 320 g/ha, three weeks after application
Outline: (§1)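 Post-emergence foliar test in sterilized diluvial soil. Compound applied as water-diluted emulsion at a predetermined rate to 14-day-old plants; evaluation at three weeks.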

false cleavers = assay: Test Example 5: herbicidal effect by foliage application, plastic box (Table 20, symbol Q); type: in vivo, false cleavers (Galium spurium); conditions: foliage application, 320 g/ha, three weeks after application
Outline: as §1

southern crabgrass [2] = assay: Test Example 4: herbicidal effect by soil treatment (Table 19, symbol F); type: in vivo, southern crabgrass (Digitaria ciliaris); conditions: amount of applied herbicide 320 g/ha
Outline: (§2)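 Emulsion of test compound, water-diluted to predetermined amount, sprayed on soil after sowing (seed depth ~1.5 cm, sterilized diluvial soil). Greenhouse, 25–30° C. Effect graded at three weeks post-spray.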

oval-leafed pondweed = assay: Test Example 2: herbicidal activity, application during weed generation under submerged conditions (Table 17, symbol C); type: in vivo, oval-leafed pondweed (Monochoria vaginalis); conditions: AAH 320 g/ha; application during weed generation, submerged conditions
Outline: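 In this pot test, flooded alluvial soil (water depth 4 cm) holds all three species sown as a mixture. Once seedlings have one to two leaves, the compound's emulsion, thinned with water to the intended dose, is poured on the water; grading follows after three weeks on the earlier criteria.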

persian speedwell = assay: Test Example 5: herbicidal effect by foliage application, plastic box (Table 20, symbol R); type: in vivo, Persian speedwell (Veronica persica); conditions: foliage application, 320 g/ha, three weeks after application
Outline: as §1

late watergrass = assay: Test Example 1: herbicidal activity, application before weed generation under submerged conditions (Table 16, symbol A); type: in vivo, late watergrass (Echinochloa oryzicola); conditions: amount of applied herbicide 320 g/ha
Outline: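 Submerged Wagner pots (alluvial soil, 4 cm water) sown with weed seeds and planted with 2.5-leaf rice seedlings; emulsifiable concentrate diluted in water applied to water surface on sowing day. Held in greenhouse at 25-30 °C; injury scored 0-5 by herbicidal rate after three weeks.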

redroot pigweed [3] = assay: Test Example 4: herbicidal effect by soil treatment (Table 19, symbol N); type: in vivo, redroot pigweed (Amaranthus retroflexus); conditions: amount of applied herbicide 320 g/ha
Outline: as §2

blackgrass [4] = assay: Test Example 5: herbicidal effect by foliage application, plastic box (Table 20, symbol J); type: in vivo, blackgrass (Alopecurus myosuroides); conditions: foliage application, 320 g/ha, three weeks after application
Outline: as §1

green foxtail [5] = assay: Test Example 5: herbicidal effect by foliage application, plastic box (Table 20, symbol G); type: in vivo, green foxtail (Setaria viridis); conditions: foliage application, 320 g/ha, three weeks after application
Outline: as §1

Chinese sprangletop = assay: Test Example 3: herbicidal effect by foliage application, Wagner pot (Table 18, symbol D); type: in vivo, chinese sprangletop (Leptochloa chinensis); conditions: 320 g/ha
Outline: (§3)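 Plants were sown in alluvial soil held under 0.1–0.5 cm standing water and grown 14 days in a greenhouse at 25–30 °C. An emulsifiable formulation, water-diluted to the set dose, was then sprayed onto the foliage, and effects were scored three weeks later using previously defined criteria.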

barnyard grass [6] = assay: Test Example 3: herbicidal effect by foliage application, Wagner pot (Table 18, symbol H); type: in vivo, barnyard grass (Echinochloa crus-galli); conditions: 320 g/ha
Outline: as §3

barnyard grass [7] = assay: Test Example 4: herbicidal effect by soil treatment (Table 19, symbol H); type: in vivo, barnyard grass (Echinochloa crus-galli); conditions: amount of applied herbicide 320 g/ha
Outline: as §2

windgrass = assay: Test Example 4: herbicidal effect by soil treatment (Table 19, symbol L); type: in vivo, windgrass (Apera spica-venti); conditions: amount of applied herbicide 320 g/ha
Outline: as §2

blackgrass [8] = assay: Test Example 4: herbicidal effect by soil treatment (Table 19, symbol J); type: in vivo, blackgrass (Alopecurus myosuroides); conditions: amount of applied herbicide 320 g/ha
Outline: as §2

chickweed = assay: Test Example 4: herbicidal effect by soil treatment (Table 19, symbol P); type: in vivo, common chickweed (Stellaria media); conditions: amount of applied herbicide 320 g/ha
Outline: as §2

redroot pigweed [9] = assay: Test Example 5: herbicidal effect by foliage application, plastic box (Table 20, symbol N); type: in vivo, redroot pigweed (Amaranthus retroflexus); conditions: foliage application, 320 g/ha, three weeks after application
Outline: as §1

green foxtail [10] = assay: Test Example 4: herbicidal effect by soil treatment (Table 19, symbol G); type: in vivo, green foxtail (Setaria viridis); conditions: amount of applied herbicide 320 g/ha
Outline: as §2

Compound | F: southern crabgrass, herbicidal effect grade (southern crabgrass [1]) | Q: false cleavers, herbicidal effect grade (false cleavers) | F: southern crabgrass, herbicidal effect grade (southern crabgrass [2]) | herbicidal effect rating, C: oval-leafed pondweed (oval-leafed pondweed) | R: persian speedwell, herbicidal effect grade (persian speedwell) | Herbicidal effect, A: late watergrass (late watergrass) | N: redroot pigweed, herbicidal effect grade (redroot pigweed [3]) | J: blackgrass, herbicidal effect grade (blackgrass [4]) | G: green foxtail, herbicidal effect grade (green foxtail [5]) | herbicidal effect on Chinese sprangletop (D) (Chinese sprangletop) | herbicidal effect on barnyard grass (H) (barnyard grass [6]) | H: barnyard grass, herbicidal effect grade (barnyard grass [7]) | L: windgrass, herbicidal effect grade (windgrass) | J: blackgrass, herbicidal effect grade (blackgrass [8]) | P: chickweed, herbicidal effect grade (chickweed) | N: redroot pigweed, herbicidal effect grade (redroot pigweed [9]) | G: green foxtail, herbicidal effect grade (green foxtail [10])
CCOc1ccc2c(-c3c(O)c(C)nn(C)c3=O)c(-c3ccc(F)cc3OCC)sc2c1 [3-095] | 5 (Herbicidal rate of 90% or more (almost completely withered)) | 5 (Herbicidal rate of 90% or more (almost completely withered)) | 4 (Herbicidal rate of 70% or more and less than 90%) | 5 (Herbicidal rate of 90% or more (almost completely withered)) | 5 (Herbicidal rate of 90% or more (almost completely withered)) | 5 (Herbicidal rate of 90% or more (almost completely withered)) | 5 (Herbicidal rate of 90% or more (almost completely withered)) | 4 (Herbicidal rate of 70% or more and less than 90%) | 3 (Herbicidal rate of 40% or more and less than 70%) | 5 (Herbicidal rate of 90% or more (almost completely withered)) | 5 (Herbicidal rate of 90% or more (almost completely withered)) | 5 (Herbicidal rate of 90% or more (almost completely withered)) | 4 (Herbicidal rate of 70% or more and less than 90%) | 4 (Herbicidal rate of 70% or more and less than 90%) | 4 (Herbicidal rate of 70% or more and less than 90%) | 5 (Herbicidal rate of 90% or more (almost completely withered)) | 5 (Herbicidal rate of 90% or more (almost completely withered))
COc1ccccc1-c1sc2cc(OC3CCCC3)ccc2c1-c1c(O)c(C)nn(C)c1=O [3-109] | 3 (Herbicidal rate of 40% or more and less than 70%) | 1 (Herbicidal rate of 5% or more and less than 20%) | 2 (Herbicidal rate of 20% or more and less than 40%) | 2 (Herbicidal rate of 20% or more and less than 40%) | 5 (Herbicidal rate of 90% or more (almost completely withered)) | 5 (Herbicidal rate of 90% or more (almost completely withered)) | 5 (Herbicidal rate of 90% or more (almost completely withered)) | 2 (Herbicidal rate of 20% or more and less than 40%) | 5 (Herbicidal rate of 90% or more (almost completely withered)) | 4 (Herbicidal rate of 70% or more and less than 90%) | 3 (Herbicidal rate of 40% or more and less than 70%) | 1 (Herbicidal rate of 5% or more and less than 20%) | 0 (Herbicidal rate of 5% or less (almost no effect)) | 0 (Herbicidal rate of 5% or less (almost no effect)) | 1 (Herbicidal rate of 5% or more and less than 20%) | 5 (Herbicidal rate of 90% or more (almost completely withered)) | 4 (Herbicidal rate of 70% or more and less than 90%)
